Laboratory results: patent US20220257518A1, “LONG-LASTING FORMULATION CONTAINING RIVASTIGMINE, AND METHOD FOR PREPARING SAME” (priority 2019, published 2022)

Experiments:
[1] = cited from earlier work
[2] = Rivastigmine and pamoate contents in rivastigmine pamoate (HPLC); format: physicochemical; settings: HPLC 210 nm
Procedure: In order to measure the contents of rivastigmine and pamoate of rivastigmine pamoate prepared in Example 1, the sample 10 mg was completely dissolved with dimethyl sulfoxide, and then was diluted into a mobile phase. The diluted solution 20 uL was injected to HPLC and was measured at a detection wavelength 210 nm. The column used in the present measurement was Inertsil ODS-3, 5 um, 4.6×250 mm, and the mobile phase was used by mixing phosphate buffer solution (pH 6.0) and acetonitrile at a ratio of 65:35 (v/v).

Question: For `CCN(C)C(=O)Oc1cccc([C@H](C)N(C)C)c1` [rivastigmine freebase, rivastigmine], which Solubility in water [1] is on record?
Answer: ≤ 5 mg/mL

Question: For rivastigmine pamoate [Sample 1-1], which “Pamoate content of rivastigmine pamoate” value [2] is on record?
Answer: 40.49 % by weight

Question: What about the “Rivastigmine content of rivastigmine pamoate” value (“Rivastigmine content” for short) [2] of the same molecule?
Answer: 57.47 % by weight

Question: What does the source list for rivastigmine pamoate [Sample 1-2]?
Answer: Pamoate content of rivastigmine pamoate [2]: 40.47 % by weight; Rivastigmine content of rivastigmine pamoate [2]: 52.45 % by weight

Question: For rivastigmine pamoate [Sample 1-3], which “Pamoate content of rivastigmine pamoate” value [2] is on record?
Answer: 53.79 % by weight

Question: What about the “Rivastigmine content” value [2] of the same molecule?
Answer: 41.10 % by weight

Question: For rivastigmine pamoate [Sample 1-4], which “Pamoate content of rivastigmine pamoate” value [2] is on record?
Answer: 68.93 % by weight

Question: And the “Rivastigmine content” value [2]?
Answer: 32.19 % by weight
